Laboratory results: patent US20160159816A1, “SUBSTITUTED THIENOPYRIMIDINES AND PHARMACEUTICAL USE THEREOF” (BAYER PHARMA AKTIENGESELLSCHAFT, priority 2013, published 2016)

These compounds were tested against T1, human full-length MKNK1 (Homo sapiens, UniProt Q9BUB5, T385D) (assay: MKNK1 kinase high ATP assay (TR-FRET)). Settings: high ATP (2 mM), after preincubation with MKNK1; compounds of the present invention (Table 1a).
T1 construct: GST (N); purchased Carna Biosciences 02-145; host or cells: insect cells, baculovirus expression system
Format: biochemical
Procedure: MKNK1-inhibitory activity at high ATP of compounds of the present invention after their preincubation with MKNK1 was quantified employing the TR-FRET-based MKNK1 high ATP assay as described in the following paragraphs.
A recombinant fusion protein of Glutathione-S-Transferase (GST, N-terminally) and human full-length MKNK1 (amino acids 1-424 and T344D of accession number BAA 19885.1), expressed in insect cells using baculovirus expression system and purified via glutathione sepharose affinity chromatography, was purchased from Carna Biosciences (product no 02-145) and used as enzyme. As substrate for the kinase reaction the biotinylated peptide biotin-Ahx-IKKRKLTRRKSLKG (C-terminus in amide form) was used, which can be purchased e.g. from the company Biosyntan (Berlin-Buch, Germany).
For the assay 50 nL of a 100 fold concentrated solution of the test compound in DMSO was pipetted into a black low volume 384 well microtiter plate (Greiner Bio-One, Frickenhausen, Germany), 2 μL of a solution of MKNK1 in aqueous assay buffer [50 mM HEPES pH 7.5, 5 mM MgCl2, 1.0 mM dithiothreitol, 0.005% (v/v) Nonidet-P40 (Sigma)] was added and the mixture was incubated for 15 min at 22° C. to allow pre-binding of the test compounds to the enzyme before the start of the kinase reaction. Then the kinase reaction was started by the addition of 3 μL of a solution of adenosine-tri-phosphate (ATP, 3.3 mM=>final conc. in the 5 μL assay volume is 2 mM) and substrate (0.1 μM=>final conc. in the 5 μL assay volume is 0.06 μM) in assay buffer and the resulting mixture was incubated for a reaction time of 30 min at 22° C. The concentration of MKNK1 was adjusted depending of the activity of the enzyme lot and was chosen appropriate to have the assay in the linear range, typical concentrations were in the range of 0.003 μg/mL. The reaction was stopped by the addition of 5 μL of a solution of TR-FRET detection reagents (5 nM streptavidine-XL665 [Cisbio Bioassays, Codolet, France] and 1 nM anti-ribosomal protein […] (pSer236)-antibody from Invitrogen [#44921G] and 1 nM LANCE EU-W1024 labeled ProteinG [Perkin-Elmer, product no. AD0071]) in an aqueous EDTA-solution (100 mM EDTA, 0.1% (w/v) bovine serum albumin in 50 mM HEPES pH 7.5).
The resulting mixture was incubated for 1 h at 22° C. to allow the formation of complex between the phosphorylated biotinylated peptide and the detection reagents. Subsequently the amount of phosphorylated substrate was evaluated by measurement of the resonance energy transfer from the Eu-chelate to the streptavidine-XL. Therefore, the fluorescence emissions at 620 nm and 665 nm after excitation at 350 nm were measured in a TR-FRET reader, e.g. a Rubystar (BMG Labtechnologies, Offenburg, Germany) or a Viewlux (Perkin-Elmer). The ratio of the emissions at 665 nm and at […] was taken as the measure for the amount of phosphorylated substrate. The data were normalised (enzyme reaction without inhibitor=0% inhibition, all other assay components but no enzyme=100% inhibition). […] Table 1a lists MKNK1 high ATP IC50 values of some compounds of the present invention.

T1 sequence (Q9BUB5 1-424 isoform Q9BUB5-2 T344D): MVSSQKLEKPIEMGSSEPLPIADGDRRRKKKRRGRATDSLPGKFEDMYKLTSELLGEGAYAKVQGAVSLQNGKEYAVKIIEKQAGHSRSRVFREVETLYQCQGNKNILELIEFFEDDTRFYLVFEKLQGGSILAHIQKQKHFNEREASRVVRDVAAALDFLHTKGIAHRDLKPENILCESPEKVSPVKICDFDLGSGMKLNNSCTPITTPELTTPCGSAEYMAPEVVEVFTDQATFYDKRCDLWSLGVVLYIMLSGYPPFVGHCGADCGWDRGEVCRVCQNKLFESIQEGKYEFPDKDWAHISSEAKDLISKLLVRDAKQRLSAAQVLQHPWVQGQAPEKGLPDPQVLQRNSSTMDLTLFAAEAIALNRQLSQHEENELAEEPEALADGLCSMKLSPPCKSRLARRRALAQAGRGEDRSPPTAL

Row | Structure (SMILES) | IC50 [nM]
1 | CC(C)OC(=O)NCC1CCc2c(sc3ncnc(Nc4ccc5[nH]ncc5c4)c23)C1 (racemic) [Example 9, (RS)-Propan-2-yl {[4-(1H-indazol-5-ylamino)-5,6,7,8-tetrahydro[1]benzothieno[2,3-d]pyrimidin-7-yl]methyl}carbamate] | 30.2
2 | COCC1(OC)CCc2c(sc3ncnc(Nc4cc5cn[nH]c5cc4C)c23)C1 (racemic) [Example 29, (RS)-7-methoxy-7-(methoxymethyl)-N-(6-methyl-1H-indazol-5-yl)-5,6,7,8-tetrahydro[1]benzothieno[2,3-d]pyrimidin-4-amine] | 984
3 | CC[C@@]1(C(=O)N(C)C(C)C)CCc2c(sc3ncnc(Nc4cc5cn[nH]c5cc4OC)c23)C1 [Example 72, (7R) 7-Ethyl-N-isopropyl-4-[(6-methoxy-1H-indazol-5-yl)amino]-N-methyl-5,6,7,8-tetrahydro[1]benzothieno[2,3-d]pyrimidine-7-carboxamide] | 38.4
4 | [N-]=[N+]=NCC1CCc2c(sc3ncnc(Nc4ccc5[nH]ncc5c4)c23)C1 (racemic) [Example 6, (RS)-7-(Azidomethyl)-N-(1H-indazol-5-yl)-5,6,7,8-tetrahydro[1]benzothieno[2,3-d]pyrimidin-4-amine] | 124
5 | CC(C)(O)C1CCc2c(sc3ncnc(Nc4ccc5[nH]ncc5c4)c23)C1 (racemic) [Example 4, (RS)-2-[4-(1H-Indazol-5-ylamino)-5,6,7,8-tetrahydro[1]benzothieno[2,3-d]pyrimidin-7-yl]propan-2-ol] | 39.1
6 | OCC1CCc2c(sc3ncnc(Nc4ccc5[nH]ncc5c4)c23)C1 (racemic) [Example 1, (RS)-[4-(1H-Indazol-5-ylamino)-5,6,7,8-tetrahydro[1]benzothieno[2,3-d]pyrimidin-7-yl]methanol] | 31.7
7 | COCC1(OC)CCc2c(sc3ncnc(Nc4cc5cn[nH]c5cc4C)c23)C1 (single isomer, unassigned) [Example 41, (7S) or (7R) 7-Methoxy-7-(methoxymethyl)-N-(6-methyl-1H-indazol-5-yl)-5,6,7,8-tetrahydro[1]benzothieno[2,3-d]pyrimidin-4-amine] | 371
8 | COCC1(OC)CCc2c(sc3ncnc(Nc4ccc5[nH]ncc5c4)c23)C1 (racemic) [Example 37, (7RS)—N-(1H-Indazol-5-yl)-7-methoxy-7-(methoxymethyl)-5,6,7,8-tetrahydro[1]benzothieno[2,3-d]pyrimidin-4-amine] | 47.8
9 | COCC1(OC)CCc2c(sc3ncnc(Nc4ccc5[nH]ncc5c4)c23)C1 (single isomer, unassigned) [Example 38, (7R) or (7S) N-(1H-Indazol-5-yl)-7-methoxy-7-(methoxymethyl)-5,6,7,8-tetrahydro[1]benzothieno[2,3-d]pyrimidin-4-amine] | 106
10 | CC1CCc2c(sc3ncnc(Nc4cc5cn[nH]c5cc4F)c23)C1 (racemic) [Example 28, (RS)—N-(6-Fluoro-1H-indazol-5-yl)-7-methyl-5,6,7,8-tetrahydro[1]benzothieno[2,3-d]pyrimidin-4-amine] | 67.1

Stronger by IC50, values ahead:

Row | IC50 [nM] | Structure (SMILES)
11 | 16.4 | CC(C)S(=O)(=O)NCC1CCc2c(sc3ncnc(Nc4ccc5[nH]ncc5c4)c23)C1 (racemic) [Example 11, (RS)—N-{[4-(1H-Indazol-5-ylamino)-5,6,7,8-tetrahydro[1]benzothieno[2,3-d]pyrimidin-7-yl]methyl}propane-2-sulfonamide]
12 | 19.6 | CC[C@@]1(C(=O)N(C)C)CCc2c(sc3ncnc(Nc4cc5cn[nH]c5cc4OC)c23)C1 [Example 50, (7R) 7-Ethyl-4-[(6-methoxy-1H-indazol-5-yl)amino]-N,N-dimethyl-5,6,7,8-tetrahydro[1]benzothieno[2,3-d]pyrimidine-7-carboxamide]
13 | 12.4 | CC(C)(O)C(=O)NCC1CCc2c(sc3ncnc(Nc4ccc5[nH]ncc5c4)c23)C1 (racemic) [Example 13, (RS)-2-Hydroxy-N-{[4-(1H-indazol-5-ylamino)-5,6,7,8-tetrahydro[1]benzothieno[2,3-d]pyrimidin-7-yl]methyl}-2-methylpropanamide]
14 | 3.4 | CC[C@]1(C(=O)N2CCC2)CCc2c(sc3ncnc(Nc4cc5cn[nH]c5cc4OC)c23)C1 [Example 69, (7S) Azetidin-1-yl{(7S)-7-ethyl-4-[(6-methoxy-1H-indazol-5-yl)amino]-5,6,7,8-tetrahydro[1]benzothieno[2,3-d]pyrimidin-7-yl}methanone]
15 | 2.5 | COc1cc2[nH]ncc2cc1Nc1ncnc2sc3c(c12)CC[C@](C)(C(=O)N(C)OC)C3 [Example 58, (7S) N-Methoxy-4-[(6-methoxy-1H-indazol-5-yl)amino]-N,7-dimethyl-5,6,7,8-tetrahydro[1]benzothieno[2,3-d]pyrimidine-7-carboxamide]
16 | 4.5 | COCCN(C)C(=O)[C@@]1(C)CCc2c(sc3ncnc(Nc4cc5cn[nH]c5cc4OC)c23)C1 [Example 56, (7S) N-(2-Methoxyethyl)-4-[(6-methoxy-1H-indazol-5-yl)amino]-N,7-dimethyl-5,6,7,8-tetrahydro[1]benzothieno[2,3-d]pyrimidine-7-carboxamide]
17 | 4.3 | COc1cc2[nH]ncc2cc1Nc1ncnc2sc3c(c12)CC[C@](C)(C(=O)N1CCOC[C@H]1C)C3 [Example 54, (7S) {4-[(6-Methoxy-1H-indazol-5-yl)amino]-7-methyl-5,6,7,8-tetrahydro[1]benzothieno[2,3-d]pyrimidin-7-yl}[(3R)-3-methylmorpholin-4-yl]methanone]
18 | 26.3 | CC[C@@]1(C(=O)N(C)CCOC)CCc2c(sc3ncnc(Nc4cc5cn[nH]c5cc4OC)c23)C1 [Example 64, (7R) 7-Ethyl-N-(2-methoxyethyl)-4-[(6-methoxy-1H-indazol-5-yl)amino]-N-methyl-5,6,7,8-tetrahydro[1]benzothieno[2,3-d]pyrimidine-7-carboxamide]
19 | 12.5 | COCC1(OC)CCc2c(sc3ncnc(Nc4cc5cn[nH]c5cc4OC)c23)C1 (single isomer, unassigned) [Example 43, (7S) or (7R) 7-Methoxy-N-(6-methoxy-1H-indazol-5-yl)-7-(methoxymethyl)-5,6,7,8-tetrahydro[1]benzothieno[2,3-d]pyrimidin-4-amine]
20 | 20.8 | N[C@@H](CCO)C(=O)NCC1CCc2c(sc3ncnc(Nc4ccc5[nH]ncc5c4)c23)C1 (mixture of isomers) [Example 16, N-{[(7RS)-4-(1H-Indazol-5-ylamino)-5,6,7,8-tetrahydro[1]benzothieno[2,3-d]pyrimidin-7-yl]methyl}-L-homoserinamide]
21 | 12.9 | COc1cc2[nH]ncc2cc1Nc1ncnc2sc3c(c12)CC[C@@](C)(C(=O)N(C)OC)C3 [Example 59, (7R) N-Methoxy-4-[(6-methoxy-1H-indazol-5-yl)amino]-N,7-dimethyl-5,6,7,8-tetrahydro[1]benzothieno[2,3-d]pyrimidine-7-carboxamide]
22 | 17 | O=C(NCC1CCc2c(sc3ncnc(Nc4ccc5[nH]ncc5c4)c23)C1)[C@@H](O)Cc1ccccc1 (mixture of isomers) [Example 14, (2R)-2-Hydroxy-N-{[(7RS)-4-(1H-indazol-5-ylamino)-5,6,7,8-tetrahydro[1]benzothieno[2,3-d]pyrimidin-7-yl]methyl}-3-phenylpropanamide]
23 | 3.7 | COc1cc2[nH]ncc2cc1Nc1ncnc2sc3c(c12)CC[C@](C)(C(=O)N1CCC1)C3 [Example 60, (7S) Azetidin-1-yl{(7S)-4-[(6-methoxy-1H-indazol-5-yl)amino]-7-methyl-5,6,7,8-tetrahydro[1]benzothieno[2,3-d]pyrimidin-7-yl}methanone]
24 | 19.6 | CC(O)C(=O)NCC1CCc2c(sc3ncnc(Nc4ccc5[nH]ncc5c4)c23)C1 (racemic) [Example 12, (2RS)-2-Hydroxy-N-{[(7RS)-4-(1H-indazol-5-ylamino)-5,6,7,8-tetrahydro[1]benzothieno[2,3-d]pyrimidin-7-yl]methyl}propanamide]
